Experimental data published in patent US9624209B2, “Substituted phenylureas and phenylamides as vanilloid receptor ligands” (Gruenenthal GmbH, priority 2009, dated 2017).

Biological target: T1, vanilloid receptor 1 (VR1/TRPV1 receptor) (Homo sapiens, UniProt Q8NER1)
T1 construct: expressed in transfected cells; host or cells: CHO K1 cells (ECACC), stably transfected
Experiment: VR1/TRPV1 receptor affinity, capsaicin stimulus (human)
Format: cell-based, human being
Parameters: key to (f) Ki (human being) [nM] Cap: result in words: AG=agonist; pAG=partial agonist; NE=no effect
Details: for Ki: Tables 8-12, read-out: (f) Ki (human being) [nM] Cap

T1 sequence (Q8NER1 whole entry): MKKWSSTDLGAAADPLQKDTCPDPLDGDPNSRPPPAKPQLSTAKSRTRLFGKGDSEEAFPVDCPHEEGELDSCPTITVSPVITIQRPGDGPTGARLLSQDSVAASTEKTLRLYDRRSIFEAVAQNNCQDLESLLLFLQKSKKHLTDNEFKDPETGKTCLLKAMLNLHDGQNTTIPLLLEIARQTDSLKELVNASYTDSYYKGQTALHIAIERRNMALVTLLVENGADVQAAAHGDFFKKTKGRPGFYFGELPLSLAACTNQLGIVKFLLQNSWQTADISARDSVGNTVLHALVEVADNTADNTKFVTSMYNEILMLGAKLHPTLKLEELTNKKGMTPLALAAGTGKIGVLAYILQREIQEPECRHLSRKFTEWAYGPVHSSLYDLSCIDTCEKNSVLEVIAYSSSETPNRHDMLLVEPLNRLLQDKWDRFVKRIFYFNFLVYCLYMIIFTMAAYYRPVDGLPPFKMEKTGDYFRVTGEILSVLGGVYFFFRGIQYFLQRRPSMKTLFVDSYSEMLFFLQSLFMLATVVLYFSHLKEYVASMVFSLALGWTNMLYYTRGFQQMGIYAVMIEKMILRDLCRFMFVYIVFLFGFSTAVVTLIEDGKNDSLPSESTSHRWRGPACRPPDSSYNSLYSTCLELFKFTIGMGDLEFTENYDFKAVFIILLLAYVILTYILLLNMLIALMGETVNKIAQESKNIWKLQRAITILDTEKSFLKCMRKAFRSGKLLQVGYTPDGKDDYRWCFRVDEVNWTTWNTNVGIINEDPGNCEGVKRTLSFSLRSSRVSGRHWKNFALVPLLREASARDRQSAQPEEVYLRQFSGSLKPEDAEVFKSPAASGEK

Row | Compound | Ki [nM] | other results
1 | 4-[[[5-tert-Butyl-2-(3-chlorophenyl)-2H-pyrazol-3-yl]-methyl-carbamoyl]amino]-2-methoxy-benzamide [Example E7] | 66 | 
2 | CC(C(=O)NCc1cc(C(C)(C)C)nn1-c1cccc(Cl)c1)c1ccc(C(O)CO)c(F)c1 (stereo not shown) [Example A145, N-[[5-tert-Butyl-2-(3-chlorophenyl)-2H-pyrazol-3-yl]-methyl]-2-[4-(1,2-dihydroxy-ethyl)-3-fluoro-phenyl]-propionamide] |  | (f) Ki (human being) [nM] Cap: result in words (Tables 8-12): AG
3 | CC(C(=O)NCc1cc(C(F)(F)F)nn1-c1ccc(Cl)cc1)c1ccc(CNS(C)(=O)=O)c(F)c1 (stereo not shown) [Example B18, N-[[2-(4-Chlorophenyl)-5-(trifluoromethyl)-2H-pyrazol-3-yl]-methyl]-2-[3-fluoro-4-(methanesulfonamido-methyl)-phenyl]-propionamide] | 13 | 
4 | 2-Chloro-4-[[[2-(3-chlorophenyl)-5-(trifluoromethyl)-2H-pyrazol-3-yl]-methyl-carbamoyl]amino]-benzoic acid [Example E54] |  | (f) Ki (human being) [nM] Cap: inhibition (as a percentage) (@ 5 μM, Tables 8-12): 20% @ 5 μM
5 | 4-[1-[[5-tert-Butyl-2-(3-chlorophenyl)-2H-pyrazol-3-yl]-methyl-carbamoyl]-ethyl]-N-phenyl-benzamide [Example E27] | 2 | 
6 | CC(C(=O)NCc1cc(C(C)(C)C)nn1-c1cccc(F)c1)c1ccc(CS(C)(=O)=O)c(F)c1 (stereo not shown) [Example D9, N-[[5-tert-Butyl-2-(3-fluorophenyl)-2H-pyrazol-3-yl]-methyl]-2-[3-fluoro-4-(methylsulfonyl-methyl)-phenyl]-propionamide] | 30 | 
7 | 4-[1-[[2-(3-Chlorophenyl)-5-(trifluoromethyl)-2H-pyrazol-3-yl]-methyl-carbamoyl]-ethyl]-2-fluoro-N-(oxetan-3-yl)-benzamide [Example E19] | 41 | 
8 | CC(C(=O)NCc1cc(C(F)(F)F)nn1-c1cccc(Cl)c1)c1ccc(CNS(C)(=O)=O)cc1 (stereo not shown) [Example B5, N-[[2-(3-Chlorophenyl)-5-(trifluoromethyl)-2H-pyrazol-3-yl]-methyl]-2-[4-(methanesulfonamido-methyl)-phenyl]-propionamide] | 9 | 
9 | CC(C)(C)c1cc(CNC(=O)Nc2ccc(CNS(C)(=O)=O)cc2)n(-c2cccc(Cl)c2)n1 [Example B28, 1-[[5-tert-Butyl-2-(3-chlorophenyl)-2H-pyrazol-3-yl]-methyl]-3-[4-(methanesulfonamido-methyl)-phenyl]-urea] | 11 | 
10 | CC(C)(C)c1cc(CNC(=O)Nc2ccc(CCS(C)(=O)=O)c(F)c2)n(-c2cc(F)cc(F)c2)n1 [Example D31, 1-[[5-tert-Butyl-2-(3,5-difluoro-phenyl)-2H-pyrazol-3-yl]-methyl]-3-[3-fluoro-4-(2-methylsulfonyl-ethyl)-phenyl]-urea] | 15 | 
11 | CC(C(=O)NCc1cc(C(F)(F)F)nn1-c1cccc(Cl)c1)c1ccc(CNS(C)(=O)=O)c(Cl)c1 (stereo not shown) [Example B22, 2-[3-Chloro-4-(methanesulfonamido-methyl)-phenyl]-N-[[2-(3-chlorophenyl)-5-(trifluoromethyl)-2H-pyrazol-3-yl]-methyl]-propionamide] | 3 | 
12 | CC(C)(C)c1cc(CNC(=O)Nc2ccc(CNS(C)(=O)=O)c(F)c2)n(-c2cccc(C(F)(F)F)c2)n1 [Example B54, 1-[[5-tert-Butyl-2-[3-(trifluoromethyl)phenyl]-2H-pyrazol-3-yl]-methyl]-3-[3-fluoro-4-(methanesulfonamido-methyl)-phenyl]-urea] | 8 | 
13 | CC(C)c1cccc(-n2nc(C(F)(F)F)cc2CNC(=O)Nc2ccc(CNS(C)(=O)=O)c(F)c2)c1 [Example B73, 1-[3-Fluoro-4-(methanesulfonamido-methyl)-phenyl]-3-[[2-(3-isopropyl-phenyl)-5-(trifluoromethyl)-2H-pyrazol-3-yl]-methyl]-urea] | 3 | 
